Measured values: patent US20080220056A1, “Treatment for liver disease” (UNIVERSITY OF SOUTHAMPTON, priority 2002, published 2008)

Assays:
hepatic stellate cells = test: TUNEL staining of cycloheximide-treated hepatic stellate cells; assay type: cell-based; details: 50 μM cycloheximide 18 h; TIMP-1 100 ng/ml
Experimental: Hepatic stellate cells were cultured on glass chamber slides and then exposed to 50 μM cycloheximide for 18 h with and without TIMP-1 (100 ng/ml). Slides were then stained for DNA fragmentation characteristic of apoptosis by the TUNEL reaction as previously described (Iredale et al., J. Clin. Invest., (1998) 102, 538-549) with the modifications recently described to reduce false positively (Stahelin et al., Mol. Pathol., (1998) 51, 204-208). Each slide was then analyzed by a blinded observer who counted the number of TUNEL-positive apoptotic figures and the TUNEL-negative cells over 10 high power fields for each condition.
A further pathognomonic feature of apoptosis is the fragmentation of DNA into oligonucleosomal lengths (Evan et al., Cell (1992) 69: 119-128). Fragmented DNA can be identified by the TUNEL technique, which can therefore be used to further quantify the apoptotic response of hepatic stellate cells in the presence and absence of cycloheximide. To assess DNA fragmentation activated hepatic stellate cells were therefore induced to undergo apoptosis by cycloheximide treatment in the presence and absence of TIMP-1 and the number of TUNEL positive cells assessed. […] As a control cells which were treated with serum alone were analyzed. […]

[1] = test system: rat hepatic stellate cells; test: Hepatic stellate cell proliferation (tritiated thymidine); assay type: cell-based; details: TIMP-1 1-100 ng/ml, 24 hour incubation, versus BSA carrier
Experimental: Hepatic stellate cells were cultured in 24-well tissue culture plates. These were washed with serum-free medium for 24 h, and then the cells were exposed to TIMP-1 at a concentration range of 1-100 ng/ml for 24 h and then pulsed with tritiated thymidine (0.5 μCi/well) for 18 hours before scintillation counting as previously described (Boulton et al., Clin. Sci., (1995) 88:119-130).

[2] = test system: intracellular Ca2+ in rat hepatic stellate cells; test: Confocal microscopy of fluo-3 (intracellular calcium); assay type: cell-based; details: 1.5 μmol/L gliotoxin
Experimental: Intracellular calcium concentrations were examined by preloading activated hepatic stellate cells seeded onto 35-mm diameter dishes with 2.5 μmol/L Fluo-3AM for two hours. Mitochondrial integrity was determined by coloading cells with […] TMRM and 1 μmol/M calcein-AM for three hours. After loading, the culture medium was removed and the cells were washed extensively with confocal buffer (145 mmol/L NaCl, 5 mml/L KCl, 1 mmol/L MgSO4, 1 mmol/L NaH2PO4, 10 mmol/L HEPES, 25 mmol/L glucose, 1 mmol/L CaCl2 and 2 mg/mL bovine serum albumin, pH 7.4) and incubated at 37° C. in 2 mL confocal buffer containing 1.5 μmol/L gliotoxin or DMSO vehicle control.
Fluo-3 and calcein fluorescence were excited at 488 nm and collected at 515-530 nm using a band width filter. TMRM was excited at 543 nm and collected at wavelengths greater than 570 nm.
MPT results in futile Ca^2+ cycling by mitochondria, which enhances the likelihood of cell death (Crompton et al., Biochem. J. (1999) 341: 233-249). The role of the MPT in the late events of gliotoxin apoptosis was also therefore assessed by measuring intracellular calcium levels. Culture-activated (14-day) rat hepatic stellate cells in six-well plates were loaded with fluo-3 and fluorescence imaged as outlined in the Materials and methods section after treatment with DMSO control or 1.5 μmol/L gliotoxin.

[3] = Pilot study for gliotoxin toxicity in rats; assay type: in vivo, rat; details: 3 mg/kg body weight
[4] = test system: carbon tetrachloride model of liver fibrosis; test: Carbon tetrachloride (in vivo) model of liver fibrosis, single gliotoxin injection; design: species or system rat; details: for Serum ALP / Serum ALT: killed 24 hours after gliotoxin
Experimental: Rats were randomly sorted into groups and treated with 2 mL CCl4:olive oil (1:1 [vol/vol])/kg body weight by intraperitoneal injection twice weekly to cause liver fibrosis. Control animals were treated with 1 mL olive oil/kg body weight by intraperitoneal injection. Gliotoxin was administered at up to 3 mg gliotoxin/kg body weight by intraperitoneal injection. Gliotoxin was dissolved in dimethyl sulfoxide (DMSO) as a vehicle, and control animals received DMSO alone.
At the required time, rats were killed by carbon dioxide asphyxiation and tissues removed for analysis. Serum was prepared and analyzed for alkaline phosphatase and alanine aminotransferase activities essentially as previously described. (Wright et al., Biochem. Pharmacol., (1992) 43:237-243) Histochemical staining of formalin-fixed liver sections with H&E, Sirius red, and immunochemical staining for α-smooth muscle actin were performed essentially as previously described (Iredale et al.,—1998—supra)
The effect of a single injection of gliotoxin on α-smooth muscle actin liver immunostaining after treatment for seven weeks with carbon tetrachloride was then determined. One day after the final injection of carbon tetrachloride, rats were administered gliotoxin and killed after a further day.
The effect of a single injection of gliotoxin on liver TUNEL staining after treatment for seven weeks with carbon tetrachloride was measured. One day after the final injection of carbon tetrachloride, rats were administered gliotoxin and then killed after a further day. Control animals received DMSO alone in place of gliotoxin. Liver sections from the rats were TUNEL stained with or without the incorporation of dUTP in the staining protocol. Sections were then counterstained with hematoxylin.
The effect of a single injection of gliotoxin on liver sirius red staining after treatment for seven weeks with carbon tetrachloride was then determined. As before, one day after the final injection of carbon tetrachloride, rats were administered gliotoxin and killed after a further day.

[5] = single gliotoxin injection 0.3 mg/kg i.p., CCl4 twice weekly seven weeks
[6] = single gliotoxin injection 0.3 mg/kg i.p., no CCl4 (olive oil seven weeks)
[7] = single gliotoxin injection 3 mg/kg i.p., CCl4 twice weekly seven weeks
[8] = single gliotoxin injection 3 mg/kg i.p., no CCl4 (olive oil seven weeks)

With “TIMP-1: recombinant tissue inhibitor of matrix metalloproteases 1 (Biogenesis)” the “cells containing fragmented DNA (TUNEL)” value (hepatic stellate cells) was “significantly reduced numbers of cells containing fragmented DNA” and the “proliferation of rat hepatic stellate cells” value [1] was “had no effect on proliferation”.
With `CN1C(=O)[C@]23CC4=CC=C[C@H](O)[C@H]4N2C(=O)[C@@]1(CO)SS3` [gliotoxin] the “intracellular Ca2+ levels” value [2] was “do not rise until two hours of incubation”, the apparent ill effects [3] was “did not cause any apparent ill effects in rats” and the “hepatic damage on histologic sections of the liver” value [3] was “no evidence of hepatic damage”. For the same molecule, the “reduction in number of α-smooth muscle actin-positive cells in CCl4 treated rat liver” value ([4]; single dose of 3 mg/kg body wt) was 57%, the “Liver α-sma staining (number of α-sma-positive cells)” value (“Liver α-sma staining” below) [4, 5] was 35 ± 11.4 and the “Sirius red staining (mid intralobular μm)” value (“Sirius red staining” below) [4, 5] was 9 ± 2.3 μm. The “Serum ALP” value [4, 5] was 790 ± 128 μ/mL, the “Serum ALT” value [4, 5] was 1310 ± 342 μ/mL and the “Liver α-sma staining” value [4, 6] was 2.5 ± 0.70. For the same molecule, the “Sirius red staining” value [4, 6] was 0 μm, the “Serum ALP” value [4, 6] was 336 ± 48 μ/mL and the “Serum ALT” value [4, 6] was 59 ± 4 μ/mL. For the same molecule, the “Liver α-sma staining” value [4, 7] was 16 ± 6.4, the “Sirius red staining” value [4, 7] was 7 ± 3.6^£ μm and the “Serum ALP” value [4, 7] was 755 ± 295 μ/mL. The “Serum ALT” value [4, 7] was 1740 ± 1100 μ/mL, the “Liver α-sma staining” value [4, 8] was 1.2 ± 0.24 and the “Sirius red staining” value [4, 8] was 0 μm. The “Serum ALP” value [4, 8] was 269 ± 25 μ/mL, the “Serum ALT” value [4, 8] was 50 ± 5 μ/mL and the “TUNEL-positive cells in liver regions staining for α-smooth muscle actin” value ([4]; single gliotoxin injection after seven weeks CCl4) was “increase in the number of TUNEL-positive cells”. The “fibrosis on blinded examination of sirius red stained liver sections” value ([4]; single injection of gliotoxin at 3 mg/kg after seven weeks CCl4) was “significantly reduced fibrosis” and the “change in serum liver enzyme levels” value ([4]; single injection of gliotoxin to control or carbon tetrachloride treated rats) was “did not result in any significant change in serum liver enzyme levels”.
